In ChEMBL document CHEMBL3885861, “Open TG-GATES”:

Organism: Rattus norvegicus
Test: Open TG-GATES - Regimen: Daily Repeat
Format: toxicity, organism-based, Sprague-Dawley
Design: regimen Daily Repeat, gender Male, age 6 weeks
Settings: in vivo, po, 50 mg/kg, route gavage, dose level Middle; for APTT / Bas / Eos / Fbg / Hb / Ht / Lym / MCH / MCHC / MCV / Mono / Neu / PT / Plat / RBC / Ret / WBC: tissue Blood; for KIDNEY_L / KIDNEY_R / KIDNEY_TOTAL: tissue Kidney; for LIVER: tissue Liver; for A/G / ALP / ALT / AST / BUN / CRE / Ca / Cl / DBIL / GLC / IP / K / LDH / Na / PL / RALB / TBIL / TC / TG / TP / gamma-GTP: tissue Plasma

`CN(C)CCC=C1c2ccccc2CCc2ccccc21` [AMITRIPTYLINE] was tested, and the TERMINAL_BW (72 h, time 3 day) was 221 g, the APTT (72 h, time 3 day) was 16.6 s and the Bas (72 h, time 3 day) was 0.2%. It also gave an Eos (72 h, time 3 day) of 1%, a Fbg (72 h, time 3 day) of 279.2 mg/dL and a Hb (72 h, time 3 day) of 13.3 g/dL. It also gave a Ht (72 h, time 3 day) of 40%, a Lym (72 h, time 3 day) of 80.2% and an MCH (72 h, time 3 day) of 21 pg. The MCHC (72 h, time 3 day) was 33.3%, the MCV (72 h, time 3 day) was 63.1 fL and the Mono (72 h, time 3 day) was 2.6%. The Neu (72 h, time 3 day) was 15.6%, the PT (72 h, time 3 day) was 16.3 s and the Plat (72 h, time 3 day) was 120.1 x10_4/uL. For the same compound, the RBC (72 h, time 3 day) was 634.6 x10_4/ul, the Ret (72 h, time 3 day) was 6% and the WBC (72 h, time 3 day) was 115.2 x10_2/uL. For the same compound, the KIDNEY_L (72 h, time 3 day) was 0.9 g, the KIDNEY_R (72 h, time 3 day) was 0.9 g and the KIDNEY_TOTAL (72 h, time 3 day) was 1.8 g. The LIVER (72 h, time 3 day) was 10.1 g, the A/G (72 h, time 3 day) was 0.8 and the ALP (72 h, time 3 day) was 1628.8 IU/L. It also gave an ALT (72 h, time 3 day) of 49.4 IU/L, an AST (72 h, time 3 day) of 67.6 IU/L and a BUN (72 h, time 3 day) of 16 mg/dL. It also gave a CRE (72 h, time 3 day) of 0.2 mg/dL, a Ca (72 h, time 3 day) of 10.9 mg/dL and a Cl (72 h, time 3 day) of 105.6 meq/L. For the same compound, the DBIL (72 h, time 3 day) was 0.02 mg/dL, the GLC (72 h, time 3 day) was 180.6 mg/dL and the IP (72 h, time 3 day) was 7.8 mg/dL. The K (72 h, time 3 day) was 4.4 meq/L, the LDH (72 h, time 3 day) was 62.8 IU/L and the Na (72 h, time 3 day) was 143.8 meq/L. It also gave a PL (72 h, time 3 day) of 158.4 mg/dL, an RALB (72 h, time 3 day) of 2.6 g/dL and a TBIL (72 h, time 3 day) of 0.048 mg/dL. It also gave a TC (72 h, time 3 day) of 87 mg/dL, a TG (72 h, time 3 day) of 98.8 mg/dL and a TP (72 h, time 3 day) of 5.8 g/dL. It also gave a gamma-GTP (72 h, time 3 day) of 0.8 IU/L, a TERMINAL_BW ([…], time 7 day) of 255.7 g and a TERMINAL_BW ([…], time 14 day) of 305.2 g. For the same compound, the TERMINAL_BW ([…], time 28 day) was 359.5 g, the APTT ([…], time 7 day) was 15 s and the Bas ([…], time 7 day) was 0.4%. For the same compound, the Eos ([…], time 7 day) was 1%, the Fbg ([…], time 7 day) was 280.6 mg/dL and the Hb ([…], time 7 day) was 13.2 g/dL. For the same compound, the Ht ([…], time 7 day) was 40%, the Lym ([…], time 7 day) was 74.8% and the MCH ([…], time 7 day) was 20.7 pg. It also gave an MCHC ([…], time 7 day) of 33%, an MCV ([…], time 7 day) of 62.7 fL and a Mono ([…], time 7 day) of 2.8%. For the same compound, the Neu ([…], time 7 day) was 20.4%, the PT ([…], time 7 day) was 15.5 s and the Plat ([…], time 7 day) was 108.4 x10_4/uL. It also gave an RBC ([…], time 7 day) of 638 x10_4/ul, a Ret ([…], time 7 day) of 5.2% and a WBC ([…], time 7 day) of 119.8 x10_2/uL. For the same compound, the APTT ([…], time 14 day) was 16.5 s, the Bas ([…], time 14 day) was 0.2% and the Eos ([…], time 14 day) was 1%. It also gave a Fbg ([…], time 14 day) of 299 mg/dL, a Hb ([…], time 14 day) of 14.4 g/dL and a Ht ([…], time 14 day) of 43.2%. It also gave a Lym ([…], time 14 day) of 77.2%, an MCH ([…], time 14 day) of 20.2 pg and an MCHC ([…], time 14 day) of 33.4%. The MCV ([…], time 14 day) was 60.5 fL, the Mono ([…], time 14 day) was 2.8% and the Neu ([…], time 14 day) was 18.2%. The PT ([…], time 14 day) was 16.2 s, the Plat ([…], time 14 day) was 111 x10_4/uL and the RBC ([…], time 14 day) was 713.6 x10_4/ul. It also gave a Ret ([…], time 14 day) of 4%, a WBC ([…], time 14 day) of 107.8 x10_2/uL and an APTT ([…], time 28 day) of 20.1 s. For the same compound, the Bas ([…], time 28 day) was 0.8%, the Eos ([…], time 28 day) was 0.8% and the Fbg ([…], time 28 day) was 289.6 mg/dL. The Hb ([…], time 28 day) was 15.6 g/dL, the Ht ([…], time 28 day) was 45% and the Lym ([…], time 28 day) was 80.6%. It also gave an MCH ([…], time 28 day) of 19.6 pg, an MCHC ([…], time 28 day) of 34.6% and an MCV ([…], time 28 day) of 56.5 fL. It also gave a Mono ([…], time 28 day) of 2.4%, a Neu ([…], time 28 day) of 14.8% and a PT ([…], time 28 day) of 16.6 s. The Plat ([…], time 28 day) was 101.5 x10_4/uL, the RBC ([…], time 28 day) was 797.2 x10_4/ul and the Ret ([…], time 28 day) was 2.1%. It also gave a WBC ([…], time 28 day) of 134.2 x10_2/uL, a KIDNEY_L ([…], time 7 day) of 1.1 g and a KIDNEY_R ([…], time 7 day) of 1.1 g. For the same compound, the KIDNEY_TOTAL ([…], time 7 day) was 2.1 g, the KIDNEY_L ([…], time 14 day) was 1.2 g and the KIDNEY_R ([…], time 14 day) was 1.2 g. The KIDNEY_TOTAL ([…], time 14 day) was 2.3 g, the KIDNEY_L ([…], time 28 day) was 1.4 g and the KIDNEY_R ([…], time 28 day) was 1.4 g. It also gave a KIDNEY_TOTAL ([…], time 28 day) of 2.7 g, an LIVER ([…], time 7 day) of 11.1 g and an LIVER ([…], time 14 day) of 12.6 g. For the same compound, the LIVER ([…], time 28 day) was 14.2 g, the A/G ([…], time 7 day) was 0.8 and the ALP ([…], time 7 day) was 1561.4 IU/L. For the same compound, the ALT ([…], time 7 day) was 47.4 IU/L, the AST ([…], time 7 day) was 69 IU/L and the BUN ([…], time 7 day) was 15.8 mg/dL. The CRE ([…], time 7 day) was 0.2 mg/dL, the Ca ([…], time 7 day) was 10.9 mg/dL and the Cl ([…], time 7 day) was 104.6 meq/L. It also gave a DBIL ([…], time 7 day) of 0.012 mg/dL, a GLC ([…], time 7 day) of 187 mg/dL and an IP ([…], time 7 day) of 7.3 mg/dL. It also gave a K ([…], time 7 day) of 3.8 meq/L, an LDH ([…], time 7 day) of 66.4 IU/L and a Na ([…], time 7 day) of 143.6 meq/L. For the same compound, the PL ([…], time 7 day) was 156.4 mg/dL, the RALB ([…], time 7 day) was 2.6 g/dL and the TBIL ([…], time 7 day) was 0.046 mg/dL. The TC ([…], time 7 day) was 80.4 mg/dL, the TG ([…], time 7 day) was 114 mg/dL and the TP ([…], time 7 day) was 5.8 g/dL. For the same compound, the gamma-GTP ([…], time 7 day) was 1 IU/L, the A/G ([…], time 14 day) was 0.8 and the ALP ([…], time 14 day) was 1627.8 IU/L. For the same compound, the ALT ([…], time 14 day) was 43.4 IU/L, the AST ([…], time 14 day) was 69.6 IU/L and the BUN ([…], time 14 day) was 17 mg/dL. The CRE ([…], time 14 day) was 0.2 mg/dL, the Ca ([…], time 14 day) was 11 mg/dL and the Cl ([…], time 14 day) was 105.4 meq/L. For the same compound, the DBIL ([…], time 14 day) was 0.022 mg/dL, the GLC ([…], time 14 day) was 186.6 mg/dL and the IP ([…], time 14 day) was 7.2 mg/dL. It also gave a K ([…], time 14 day) of 4 meq/L, an LDH ([…], time 14 day) of 72.6 IU/L and a Na ([…], time 14 day) of 143.6 meq/L. For the same compound, the PL ([…], time 14 day) was 156.2 mg/dL, the RALB ([…], time 14 day) was 2.7 g/dL and the TBIL ([…], time 14 day) was 0.05 mg/dL. It also gave a TC ([…], time 14 day) of 77.4 mg/dL, a TG ([…], time 14 day) of 145.2 mg/dL and a TP ([…], time 14 day) of 6 g/dL. It also gave a gamma-GTP ([…], time 14 day) of 0.6 IU/L, an A/G ([…], time 28 day) of 0.8 and an ALP ([…], time 28 day) of 1098.4 IU/L. For the same compound, the ALT ([…], time 28 day) was 40.8 IU/L, the AST ([…], time 28 day) was 61.8 IU/L and the BUN ([…], time 28 day) was 17.2 mg/dL. It also gave a CRE ([…], time 28 day) of 0.2 mg/dL, a Ca ([…], time 28 day) of 10.3 mg/dL and a Cl ([…], time 28 day) of 104.2 meq/L. The DBIL ([…], time 28 day) was 0.018 mg/dL, the GLC ([…], time 28 day) was 186.6 mg/dL and the IP ([…], time 28 day) was 6.3 mg/dL. For the same compound, the K ([…], time 28 day) was 4 meq/L, the LDH ([…], time 28 day) was 62.4 IU/L and the Na ([…], time 28 day) was 141.6 meq/L. It also gave a PL ([…], time 28 day) of 139.8 mg/dL, an RALB ([…], time 28 day) of 2.8 g/dL and a TBIL ([…], time 28 day) of 0.058 mg/dL. The TC ([…], time 28 day) was 71.4 mg/dL, the TG ([…], time 28 day) was 108 mg/dL and the TP ([…], time 28 day) was 6.3 g/dL. It also gave a gamma-GTP ([…], time 28 day) of 0.6 IU/L.
